This note sets out measurements from patent US8030354B2, “Substituted biphenyl GPR40 modulators” (Amgen Inc., priority 2007, dated 2011).

Test [1] addresses T1, GPR40 (Homo sapiens, UniProt O14842). Nature of the test: Cell-based aequorin assay (CHO cells stably expressing GPR40 and aequorin). Set-up: expressed in transfected cells; host or cells: CHO cells stably transfected with GPR40 and aequorin. The settings on record: activation of human GPR40, CHO cells, 0.01% HSA. Put shortly: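 CHO cells stably co-expressing GPR40 and aequorin, loaded with coelenterazine (1 ug/mL, 2 h, room temperature) in H/HBSS with 20 mM Hepes and 0.01% fatty acid-free HSA. Serially diluted compounds added; luminescence recorded over 20 s. EC50 from dose-response of maximum relative light units.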

The target in test [2] is T1, GPR40. Nature of the test: Inositol phosphate accumulation assay (A9_GPR40 cells). It is filed as cell-based. The settings on record: inositol phosphate assay, A9_GPR40 cells, 1 hour; read-out: IP3 EC50. Set-up: expressed in transfected cells; host or cells: CHO cells stably transfected with GPR40 and aequorin. As for the experimental part: Briefly, the Aequorin assays were performed on doubly stable CHO cells expressing GPR40 and Aequorin DNA. […] The luminescence was recorded over a period of 20 seconds with a Microlumat luminometer (Berthold). […] The inositol phosphate assay was performed on an A9 cell line stably transfected with GPR40 (A9_GPR40). The cells were incubated with different concentrations of compounds and [^3H] inositol accumulation was measured after 1 hour.
An A9 cell line stably transfected with GPR40 (A9_GPR40) was used in IP accumulation assays. A9_GPR40 cells were plated in 96-well plates containing 20,000 cells/well in DMEM containing 10% FBS. After the cells attached to the well surface, the media was replaced with inositol free DMEM containing 10% dialyzed FBS and 1 μCi, mL ^3H-inositol and incubated for 16 hours. Compounds were diluted in HBSS/10 mM LiCl containing a desired amount of HSA and added directly to cells. Following 1 hour incubation at 37° C., the media was replaced with 100 μL of 20 mM formic acid to quench the reaction. 50 μL of the extract was then added to 100 μL of SPA beads, incubated overnight, and measured on a TopCount the following day.

T1 sequence (O14842 whole entry): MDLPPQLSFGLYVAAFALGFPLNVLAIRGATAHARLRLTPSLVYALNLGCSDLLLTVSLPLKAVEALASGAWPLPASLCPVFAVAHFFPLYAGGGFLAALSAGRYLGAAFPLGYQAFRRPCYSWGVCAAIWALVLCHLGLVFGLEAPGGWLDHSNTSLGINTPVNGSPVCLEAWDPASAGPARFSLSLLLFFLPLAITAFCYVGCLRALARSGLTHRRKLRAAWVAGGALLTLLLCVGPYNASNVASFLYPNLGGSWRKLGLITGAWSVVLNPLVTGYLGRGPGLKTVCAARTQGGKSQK

As a reminder, the EC50 is the concentration that produces a half-maximal response. For the compound `COc1cccc(-c2ccc(COc3cccc([C@@H](CC(=O)O)C4CC4)c3)cc2C(C)(C)C)c1` (single isomer, unassigned) [Example 12, (3S)-3-Cyclopropyl-3-(3-(((2-(1,1-dimethylethyl)-3′-(methyloxy)-1,1′-biphenyl-4-yl)methyl)oxy)phenyl)propanoic acid or (3R)-3-cyclopropyl-3-(3-(((2-(1,1-dimethylethyl)-3′-(methyloxy)-1,1′-biphenyl-4-yl)methyl)oxy)phenyl)propanoic acid], the EC50 at GPR40 [1] and on GPR40 [2] was 100 to 1000 nM each time.
Take `CC[C@H](CC(=O)O)c1cccc(OCc2ccc(-c3cc(OC)ccc3F)c(C(C)(C)C)c2)c1` (single isomer, unassigned) [Example 17, (3R)-3-(3-(((2-(1,1-Dimethylethyl)-2′-fluoro-5′-(methyloxy)-1,1′-biphenyl-4-yl)methyl)oxy)phenyl)pentanoic acid or (3S)-3-(3-(((2-(1,1-dimethylethyl)-2′-fluoro-5′-(methyloxy)-1,1′-biphenyl-4-yl)methyl)oxy)phenyl)pentanoic acid]: the concentration giving a half-maximal response (EC50) on GPR40 [1] and on GPR40 [2] was 100 to 1000 nM throughout.
As to `CCCCOc1cc(COc2cccc([C@H](CC)CC(=O)O)c2)ccc1-c1cc(OC)ccc1F` (single isomer, unassigned) [Example 18, (3R)-3-(3-(((2-(Butyloxy)-2′-fluoro-5′-(methyloxy)-1,1′-biphenyl-4-yl)methyl)oxy)phenyl)pentanoic acid or (3S)-3-(3-(((2-(butyloxy)-2′-fluoro-5′-(methyloxy)-1,1′-biphenyl-4-yl)methyl)oxy)phenyl)pentanoic acid], the half-maximal effective concentration (EC50) at GPR40 [1] and on GPR40 [2] was 100 to 1000 nM in each case.
On to `CCCCOc1cc(COc2cccc([C@H](C)CC(=O)O)c2)ccc1-c1cccc(OC)c1` (single isomer, unassigned) [Example 20, (3R)-3-(3-(((2-(Butyloxy)-3′-(methyloxy)-1,1′-biphenyl-4-yl)methyl)oxy)phenyl)butanoic acid or (3S)-3-(3-(((2-(butyloxy)-3′-(methyloxy)-1,1′-biphenyl-4-yl)methyl)oxy)phenyl)butanoic acid], for which the EC50 on GPR40 [1] and on GPR40 [2] was 100 to 1000 nM in each case.
In the case of `CCC[C@H](CC(=O)O)c1cccc(OCc2ccc(-c3cccc(OC)c3)c(C(C)(C)C)c2)c1` (single isomer, unassigned) [Example 33, (3R)-3-(3-(((2-(1,1-Dimethylethyl)-3′-(methyloxy)-1,1′-biphenyl-4-yl)methyl)oxy)phenyl)hexanoic acid or (3S)-3-(3-(((2-(1,1-dimethylethyl)-3′-(methyloxy)-1,1′-biphenyl-4-yl)methyl)oxy)phenyl)hexanoic acid], the EC50 on GPR40 [1] and on GPR40 [2] was 100 to 1000 nM in each case.
As for `C[C@H](CC(=O)O)c1cccc(OCc2ccc(-c3cc(O)ccc3F)c(C(C)(C)C)c2)c1` (single isomer, unassigned) [Example 35, (3R)-3-(3-(((2-(1,1-Dimethylethyl)-2′-fluoro-5′-hydroxy-1,1′-biphenyl-4-yl)methyl)oxy)phenyl)butanoic acid or (3S)-3-(3-(((2-(1,1-dimethylethyl)-2′-fluoro-5′-hydroxy-1,1′-biphenyl-4-yl)methyl)oxy)phenyl)butanoic acid], the EC50 on GPR40 [1] and on GPR40 [2] was 100 to 1000 nM in each case.
As to `COc1ccc(F)c(-c2ccc(COc3cccc(C(C)CC(=O)O)c3)cc2C(C)(C)C)c1` (single isomer, unassigned) [Example 42, (3R)-3-(3-(((2-(1,1-Dimethylethyl)-2′-fluoro-5′-(methyloxy)-1,1′-biphenyl-4-yl)methyl)oxy)phenyl)butanoic acid or (3S)-3-(3-(((2-(1,1-dimethylethyl)-2′-fluoro-5′-(methyloxy)-1,1′-biphenyl-4-yl)methyl)oxy)phenyl)butanoic acid], the EC50 on GPR40 [1] was in the range of 100 to 1000 nM; at GPR40 [2], 1000 to 10000 nM.
In the same order, the values of `CCC[C@H](CC(=O)O)c1cccc(OCc2ccc(-c3cc(OC)ccc3F)c(C(C)(C)C)c2)c1` (single isomer, unassigned) [Example 43, (3R)-3-(3-(((2-(1,1-Dimethylethyl)-2′-fluoro-5′-(methyloxy)-1,1′-biphenyl-4-yl)methyl)oxy)phenyl)hexanoic acid or (3S)-3-(3-(((2-(1,1-dimethylethyl)-2′-fluoro-5′-(methyloxy)-1,1′-biphenyl-4-yl)methyl)oxy)phenyl)hexanoic acid] are 100 to 1000 nM and 100 to 1000 nM.
Regarding `COc1ccc(F)c(-c2ccc(COc3cccc([C@H](C)CC(=O)O)c3)cc2OC(F)(F)F)c1` (single isomer, unassigned) [Example 46, (3R)-3-(3-(((2′-Fluoro-5′-(methyloxy)-2-((trifluoromethyl)oxy)-1,1′-biphenyl-4-yl)methyl)oxy)phenyl)butanoic acid or (3S)-3-(3-(((2′-fluoro-5′-(methyloxy)-2-((trifluoromethyl)oxy)-1,1′-biphenyl-4-yl)methyl)oxy)phenyl)butanoic acid], the EC50 on GPR40 [1] was 100 to 1000 nM; on GPR40 [2], 1000 to 10000 nM.
Taken in the same sequence, the figures for `COc1cccc(-c2ccc(COc3cccc([C@H](C)CC(=O)O)c3)cc2C(C)(C)C)c1` (single isomer, unassigned) [Example 47, (3R)-3-(3-(((2-(1,1-Dimethylethyl)-3′-(methyloxy)-1,1′-biphenyl-4-yl)methyl)oxy)phenyl)butanoic acid or (3S)-3-(3-(((2-(1,1-dimethylethyl)-3′-(methyloxy)-1,1′-biphenyl-4-yl)methyl)oxy)phenyl)butanoic acid] were 100 to 1000 nM and 100 to 1000 nM.
Taken in the same sequence, the figures for `C=C(C)[C@H](CC(=O)O)c1cccc(OCc2ccc(-c3cc(OC)ccc3F)c(OCCCC)c2)c1` (single isomer, unassigned) [Example 50, (3S)-3-(3-(((2-(Butyloxy)-2′-fluoro-5′-(methyloxy)-1,1′-biphenyl-4-yl)methyl)oxy)phenyl)-4-methyl-4-pentenoic acid or (3R)-3-(3-(((2-(butyloxy)-2′-fluoro-5′-(methyloxy)-1,1′-biphenyl-4-yl)methyl)oxy)phenyl)-4-methyl-4-pentenoic acid] were 1000 to 10000 nM and 1000 to 10000 nM.
In the same order, the values of `C=CC[C@H](CC(=O)O)c1cccc(OCc2ccc(-c3cc(OC)ccc3F)c(C(C)(C)C)c2)c1` (single isomer, unassigned) [Example 51, (3R)-3-(3-(((2-(1,1-Dimethylethyl)-2′-fluoro-5′-(methyloxy)-1,1′-biphenyl-4-yl)methyl)oxy)phenyl)-5-hexenoic acid or (3S)-3-(3-(((2-(1,1-dimethylethyl)-2′-fluoro-5′-(methyloxy)-1,1′-biphenyl-4-yl)methyl)oxy)phenyl)-5-hexenoic acid] are 100 to 1000 nM and 100 to 1000 nM.
For the compound `COc1ccc(F)c(-c2ccc(COc3cccc([C@H](C)CC(=O)O)c3)cc2C2=CCCC2(C)C)c1` (single isomer, unassigned) [Example 55, (3R)-3-(3-(((2-(5,5-Dimethyl-1-cyclopenten-1-yl)-2′-fluoro-5′-(methyloxy)-1,1′-biphenyl-4-yl)methyl)oxy)phenyl)butanoic acid or (3S)-3-(3-(((2-(5,5-dimethyl-1-cyclopenten-1-yl)-2′-fluoro-5′-(methyloxy)-1,1′-biphenyl-4-yl)methyl)oxy)phenyl)butanoic acid], the EC50 on GPR40 [1] fell in the range of 100 to 1000 nM; at GPR40 [2], 10 to 100 nM.
In the same order, the values of `C=C(C)[C@H](CC(=O)O)c1cccc(OCc2ccc(-c3cccc(OC)c3)c(C(C)(C)C)c2)c1` (single isomer, unassigned) [Example 56, (3S)-3-(3-(((2-(1,1-Dimethylethyl)-3′-(methyloxy)-1,1′-biphenyl-4-yl)methyl)oxy)phenyl)-4-methyl-4-pentenoic acid or (3R)-3-(3-(((2-(1,1-dimethylethyl)-3′-(methyloxy)-1,1′-biphenyl-4-yl)methyl)oxy)phenyl)-4-methyl-4-pentenoic acid] are 100 to 1000 nM and 100 to 1000 nM.
Taken in the same sequence, the figures for `C=CC[C@H](CC(=O)O)c1cccc(OCc2ccc(-c3cccc(OC)c3)c(C(C)(C)C)c2)c1` (single isomer, unassigned) [Example 57, (3R)-3-(3-(((2-(1,1-dimethylethyl)-3′-(methyloxy)-1,1′-biphenyl-4-yl)methyl)oxy)phenyl)-5-hexenoic acid or (3S)-3-(3-(((2-(1,1-dimethylethyl)-3′-(methyloxy)-1,1′-biphenyl-4-yl)methyl)oxy)phenyl)-5-hexenoic acid] were 100 to 1000 nM and 100 to 1000 nM.
